This is an account of results in US9999650B2, “Peptide and peptidomimetic inhibitors” (Ra Pharmaceuticals, Inc., priority 2012, dated 2018).

pIC50: −log10 of the molar value. Numbered stars: 1 amine (or outer) side, 2 acyl side, 3 side chain; on linkers, the order of the positions; unused ones are H or OH. Bridge positions count the residues as written; N and C are the ends. Square brackets hold non-standard residues; d marks the D form. Peptide text beside a SMILES is read from it. mXylylene = c1cc(C[*:1])cc(C[*:2])c1; Phg = N[C@H](C(=O)O)c1ccccc1; Tle = CC(C)(C)[C@H](N)C(=O)O; NMeS = CN[C@@H](CO)C(=O)O Some results are limits rather than exact numbers.

What all share (type): biochemical
One test deals with T1, plasmin (Homo sapiens, UniProt P00747).
T1 construct: plasmin (Enzyme Research Laboratories, South Bend, Ind.); purchased Enzyme Research Laboratories
T1 sequence (P00747 97-580 limits assumed): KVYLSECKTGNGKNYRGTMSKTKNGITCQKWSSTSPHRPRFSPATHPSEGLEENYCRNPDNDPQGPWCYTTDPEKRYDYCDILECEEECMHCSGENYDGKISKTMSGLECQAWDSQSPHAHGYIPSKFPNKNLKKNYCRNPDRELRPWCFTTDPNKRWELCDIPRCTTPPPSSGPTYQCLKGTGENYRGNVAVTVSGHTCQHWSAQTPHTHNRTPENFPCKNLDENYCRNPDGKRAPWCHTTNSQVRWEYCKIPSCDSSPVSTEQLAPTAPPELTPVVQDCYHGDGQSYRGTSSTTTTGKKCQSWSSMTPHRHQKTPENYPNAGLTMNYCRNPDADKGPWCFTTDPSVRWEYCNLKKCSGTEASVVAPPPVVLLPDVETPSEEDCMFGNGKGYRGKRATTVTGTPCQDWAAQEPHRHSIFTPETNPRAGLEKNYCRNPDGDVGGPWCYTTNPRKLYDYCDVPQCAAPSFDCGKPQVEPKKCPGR
T1 sequence (P00747 581-810 limits assumed): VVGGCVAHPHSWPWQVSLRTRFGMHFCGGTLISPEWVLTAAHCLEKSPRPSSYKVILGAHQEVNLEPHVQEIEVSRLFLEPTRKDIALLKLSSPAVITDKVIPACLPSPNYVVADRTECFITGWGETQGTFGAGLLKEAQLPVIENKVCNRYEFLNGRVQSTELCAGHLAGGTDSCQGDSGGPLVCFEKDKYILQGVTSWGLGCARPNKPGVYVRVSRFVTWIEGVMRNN
Put plainly: Inhibitor specificity IC50 assay, plasmin (Boc-Val-Leu-Lys-AMC). The following applies: substrate Boc-Val-Leu-Lys-AMC. As to the method:
(§1) Activated human plasma kallikrein (Enzyme Research Laboratories, HPKa 1303) was reacted with H-Pro-Phe-Arg-7-amido-4-methylcoumarin (H-Pro-Pre-Arg-AMC) (a fluorogenic substrate for plasma as well as pancreatic and urinary kallikreins; Bachem I-1295) and candidate inhibitory peptides to determine the IC50 of the inhibitor.
(§2) Ten 8-fold serial dilutions of peptides (10 mM DMSO stocks) were performed in DMSO and then added to TCNB (50 mM Tris-HCl pH 7.2, 150 mM NaCl, 10 mM CaCl2, 0.05% Brij-35) and sonicated. 50 μL of the peptide dilutions were added to microtitre plates (96 well, black non-binding surface, Corning, 3650) and incubated for 5 minutes at room temperature with 4 nM activated human kallikrein (final concentration after addition of fluorogenic substrate: 1 nM). The samples were then incubated for 1 hour at room temperature with 2 mM H-Pro-Phe-Arg-AMC (final concentration 500 μM). Relative Fluorescence Units (RFU) were measured at excitation/emission 360 nm/460 nm by a SpectraMax M3.
(§3) To determine the specificity of peptide inhibitors, an IC50 assay, as described in Example 4, was performed on a variety of serine proteases related to human plasma kallikrein. The enzymes tested include mouse plasma kallikrein (R&D Systems, Minneapolis, Minn.), and the human enzymes Factor VIIa (Enzyme Research Laboratories, South Bend, Ind.), Factor Xa (Enzyme Research Laboratories, South Bend, Ind.), Factor XIa (Enzyme Research Laboratories, South Bend, Ind.), Factor XIIa (Enzyme Research Laboratories, South Bend, Ind.), tissue kallikrein KLK13 (R&D Systems, Minneapolis, Minn.), thrombin (Enzyme Research Laboratories, South Bend, Ind.) and plasmin (Enzyme Research Laboratories, South Bend, Ind.).
(§4) Each enzyme was tested with the following specific fluorgenic substrates (available from Bachem; Torrance, Calif.): mouse plasma kallikrein (Pro-Phe-Arg-AMC), Factor VIIa (Boc-Val-Pro-Arg-AMC), Factor Xa (Boc-Gln-Gly-Arg-AMC), Factor XIa (Boc-Gln-Gly-Arg-AMC), Factor XIIa (Boc-Gln-Gly-Arg-AMC), KLK13 (Boc-Val-Pro-Arg-AMC), thrombin (Boc-Val-Pro-Arg-AMC) and plasmin (Boc-Val-Leu-Lys-AMC). Peptide inhibitors R2006, R2010, R2012, R2019, R2023, R2030, R2036, R2041, R2047, R2104 and R2051 were assayed.

For a further test, the target named is T2, Factor XIa (Homo sapiens, UniProt P03951).
T2 construct: Factor XIa (Enzyme Research Laboratories, South Bend, Ind.); purchased Enzyme Research Laboratories
T2 sequence (P03951 19-387 limits assumed): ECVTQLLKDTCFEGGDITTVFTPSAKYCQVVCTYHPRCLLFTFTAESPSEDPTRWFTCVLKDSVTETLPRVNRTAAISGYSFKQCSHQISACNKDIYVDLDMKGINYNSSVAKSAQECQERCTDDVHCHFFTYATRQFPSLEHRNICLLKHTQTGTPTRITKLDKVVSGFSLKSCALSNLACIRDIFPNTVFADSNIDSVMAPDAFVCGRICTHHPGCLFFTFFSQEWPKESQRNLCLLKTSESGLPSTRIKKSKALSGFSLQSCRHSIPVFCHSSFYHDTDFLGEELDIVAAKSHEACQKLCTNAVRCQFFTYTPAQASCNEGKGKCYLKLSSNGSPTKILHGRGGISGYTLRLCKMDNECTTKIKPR
T2 sequence (P03951 388-625 limits assumed): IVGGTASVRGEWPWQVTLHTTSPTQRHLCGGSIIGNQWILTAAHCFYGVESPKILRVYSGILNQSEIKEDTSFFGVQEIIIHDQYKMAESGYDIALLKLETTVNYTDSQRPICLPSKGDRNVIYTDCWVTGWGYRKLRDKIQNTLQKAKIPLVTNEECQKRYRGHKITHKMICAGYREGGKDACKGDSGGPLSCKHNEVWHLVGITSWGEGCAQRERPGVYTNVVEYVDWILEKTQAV
The test is described as follows: Inhibitor specificity IC50 assay, Factor XIa (Boc-Gln-Gly-Arg-AMC). As to conditions: substrate Boc-Gln-Gly-Arg-AMC. As to the method: as §1, §2, §3, §4

Another test addresses T3, tissue kallikrein KLK13 (Homo sapiens, UniProt Q9UKR3).
T3 construct: purchased R&D Systems
T3 sequence (Q9UKR3 17-277): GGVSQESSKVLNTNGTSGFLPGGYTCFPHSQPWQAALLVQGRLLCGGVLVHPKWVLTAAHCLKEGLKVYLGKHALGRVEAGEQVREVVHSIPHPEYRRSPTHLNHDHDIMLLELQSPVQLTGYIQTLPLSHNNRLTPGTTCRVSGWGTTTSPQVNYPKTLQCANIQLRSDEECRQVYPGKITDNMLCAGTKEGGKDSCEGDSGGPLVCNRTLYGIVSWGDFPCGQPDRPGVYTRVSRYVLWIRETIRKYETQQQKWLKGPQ
The test is described as follows: Inhibitor specificity IC50 assay, KLK13 (Boc-Val-Pro-Arg-AMC). As to conditions: substrate Boc-Val-Pro-Arg-AMC. As to the method: as §1, §2, §3, §4

Another test concerns the target T4, thrombin (Homo sapiens, UniProt P00734).
T4 construct: thrombin (Enzyme Research Laboratories, South Bend, Ind.); purchased Enzyme Research Laboratories
The test is described as follows: Inhibitor specificity IC50 assay, thrombin (Boc-Val-Pro-Arg-AMC). As to conditions: substrate Boc-Val-Pro-Arg-AMC. As to the method: as §1, §2, §3, §4

A further test deals with T5, Factor XIIa (Homo sapiens, UniProt P00748).
T5 construct: Factor XIIa (Enzyme Research Laboratories, South Bend, Ind.); purchased Enzyme Research Laboratories
T5 sequence (P00748 373-615 limits assumed): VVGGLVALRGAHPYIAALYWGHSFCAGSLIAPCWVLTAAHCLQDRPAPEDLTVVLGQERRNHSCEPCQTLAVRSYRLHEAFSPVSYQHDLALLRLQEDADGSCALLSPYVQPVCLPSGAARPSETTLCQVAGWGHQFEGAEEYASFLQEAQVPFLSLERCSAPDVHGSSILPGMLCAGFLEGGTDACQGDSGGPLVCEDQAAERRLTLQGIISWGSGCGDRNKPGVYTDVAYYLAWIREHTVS
The test is described as follows: Inhibitor specificity IC50 assay, Factor XIIa (Boc-Gln-Gly-Arg-AMC). The following applies: substrate Boc-Gln-Gly-Arg-AMC. As to the method: as §1, §2, §3, §4

In another test the target is T6, Factor VIIa (Homo sapiens, UniProt P08709).
T6 construct: Factor VIIa (Enzyme Research Laboratories, South Bend, Ind.); purchased Enzyme Research Laboratories
T6 sequence (P08709 61-212 limits assumed): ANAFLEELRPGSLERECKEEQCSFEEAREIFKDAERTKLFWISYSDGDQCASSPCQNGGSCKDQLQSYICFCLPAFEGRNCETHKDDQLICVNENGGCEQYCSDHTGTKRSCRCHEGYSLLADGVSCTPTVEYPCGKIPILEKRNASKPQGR
T6 sequence (P08709 213-466 limits assumed): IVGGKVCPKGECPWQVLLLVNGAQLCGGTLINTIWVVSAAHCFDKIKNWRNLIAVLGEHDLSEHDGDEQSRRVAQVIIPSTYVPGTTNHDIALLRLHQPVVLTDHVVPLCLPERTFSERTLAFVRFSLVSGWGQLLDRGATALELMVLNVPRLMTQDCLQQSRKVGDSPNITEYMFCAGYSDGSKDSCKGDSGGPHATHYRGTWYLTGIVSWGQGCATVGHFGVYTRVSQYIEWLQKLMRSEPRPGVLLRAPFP
The test is described as follows: Inhibitor specificity IC50 assay, Factor VIIa (Boc-Val-Pro-Arg-AMC). As to conditions: substrate Boc-Val-Pro-Arg-AMC. As to the method:
as §2, §3, §4

Another test deals with T7, Factor Xa (Homo sapiens, UniProt P00742).
T7 construct: Factor Xa (Enzyme Research Laboratories, South Bend, Ind.); purchased Enzyme Research Laboratories
T7 sequence (P00742 41-179 limits assumed): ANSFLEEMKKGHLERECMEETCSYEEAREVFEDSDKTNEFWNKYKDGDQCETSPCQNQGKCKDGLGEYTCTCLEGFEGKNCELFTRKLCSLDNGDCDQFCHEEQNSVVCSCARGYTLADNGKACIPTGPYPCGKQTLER
T7 sequence (P00742 235-488 limits assumed): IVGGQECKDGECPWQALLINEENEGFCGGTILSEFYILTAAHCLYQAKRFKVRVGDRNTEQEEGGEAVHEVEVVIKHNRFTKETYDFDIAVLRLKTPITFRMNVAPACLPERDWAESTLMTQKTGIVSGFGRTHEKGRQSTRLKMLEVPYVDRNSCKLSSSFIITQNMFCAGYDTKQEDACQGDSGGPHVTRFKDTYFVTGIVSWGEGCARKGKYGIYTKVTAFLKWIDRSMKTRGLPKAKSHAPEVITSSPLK
Put plainly: Inhibitor specificity IC50 assay, Factor Xa (Boc-Gln-Gly-Arg-AMC). The following applies: substrate Boc-Gln-Gly-Arg-AMC. As to the method:
as §1, §2, §3, §4

For another test, the target named is T8, human plasma kallikrein (Homo sapiens, UniProt P03952).
T8 construct: purchased Enzyme Research Laboratories HPKa 1303
T8 sequence (P03952 20-390 limits assumed): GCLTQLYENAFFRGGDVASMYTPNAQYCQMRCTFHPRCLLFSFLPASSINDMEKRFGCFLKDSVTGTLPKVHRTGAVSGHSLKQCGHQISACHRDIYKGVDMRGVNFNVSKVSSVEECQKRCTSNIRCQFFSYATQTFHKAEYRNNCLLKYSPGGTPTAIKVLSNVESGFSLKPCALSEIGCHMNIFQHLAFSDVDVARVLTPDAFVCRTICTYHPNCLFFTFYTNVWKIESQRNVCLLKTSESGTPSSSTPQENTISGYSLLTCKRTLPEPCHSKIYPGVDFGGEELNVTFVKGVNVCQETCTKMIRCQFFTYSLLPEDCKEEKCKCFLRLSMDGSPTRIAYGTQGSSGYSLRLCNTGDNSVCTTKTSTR
T8 sequence (P03952 391-638 limits assumed): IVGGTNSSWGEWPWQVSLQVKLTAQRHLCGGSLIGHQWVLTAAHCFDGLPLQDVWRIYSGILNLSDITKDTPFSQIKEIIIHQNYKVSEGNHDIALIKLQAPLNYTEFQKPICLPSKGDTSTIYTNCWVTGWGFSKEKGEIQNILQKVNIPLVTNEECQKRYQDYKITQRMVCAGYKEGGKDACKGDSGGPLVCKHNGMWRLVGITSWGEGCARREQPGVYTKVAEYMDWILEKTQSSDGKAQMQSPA
Put plainly: Enzyme inhibition assay (fluorogenic substrate H-Pro-Phe-Arg-AMC). The following applies: Kallikrein inhibitory activity; 1 nM activated human kallikrein, 500 μM H-Pro-Phe-Arg-AMC, 1 hour room temperature; read-out: Avg. IC50. In outline: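 IC50 was determined from AMC fluorescence (ex 360/em 460 nm) after 1 h of reaction at room temperature with 500 μM final substrate. Before this, peptides in ten 8-fold serial dilutions were incubated 5 min with 1 nM final activated kallikrein. The buffer was Tris-HCl pH 7.2 containing NaCl, CaCl2 and Brij-35.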

Usually pIC50 stands for the negative decadic logarithm of the IC50, by convention in mol/L. For `CC[C@H](C)[C@@H]1NC(=O)[C@H](CO)NC(=O)[C@@H](C)NC(=O)[C@@H](NC(C)=O)CSCc2cccc(c2)CSC[C@@H](C(=O)N[C@@H](CCCNC(=N)N)C(=O)N[C@H](C(N)=O)C(C)C)NC1=O` [Compound R2047, [mXylyl(1,5)]Ac-C-a-SICRV-NH2] (Ac-C[dA]SICRV-NH2; linker 1-5 via mXylylene), the pIC50 is below 4.00 against plasmin; below 4.86 against Factor XIa; below 4.00 on tissue kallikrein KLK13; below 4.00 at thrombin; below 4.00 against Factor XIIa; below 4.00 on Factor VIIa. At Factor Xa, this compound gave a pIC50 below 4.00.

With `CC[C@H](C)[C@@H]1NC(=O)[C@H](CO)N(C)C(=O)[C@H](CCC(=O)O)NC(=O)[C@@H](NC(=O)[C@@H](N)CCSC)CSCc2cccc(c2)CSC[C@@H](C(=O)N[C@@H](CCCNC(=N)N)C(=O)N[C@H](C(N)=O)C(C)C)NC1=O` [Compound R2019, [mXylyl(2,6)]MCE-nMeS-ICRV-NH2] (H-MCE[NMeS]ICRV-NH2; linker 2-6 via mXylylene; N-terminus assumed), the pIC50 against plasmin is below 4.68; against Factor XIa it was below 5.04; against tissue kallikrein KLK13, below 4.79; on thrombin it was below 4.00; at Factor XIIa, below 4.90; against Factor VIIa it was below 4.00. For the same compound, the pIC50 on Factor Xa was below 5.00; on human plasma kallikrein it was 7.28.

On to `CC(=O)N[C@H]1CSCc2cccc(c2)CSC[C@@H](C(=O)N[C@@H](CCCNC(=N)N)C(=O)N[C@H](C(N)=O)C(C)(C)C)NC(=O)[C@H](c2ccccc2)NC(=O)[C@H](CO)NC(=O)[C@H](C)NC1=O` [Compound R2036, [mXylyl(1,5)]Ac-CAS-Phg-CR-Tbg-NH2] (Ac-CAS[Phg]CR[Tle]-NH2; linker 1-5 via mXylylene), for which the negative logarithm of the IC50 (pIC50) at plasmin is below 4.71; on Factor XIa, below 5.32; against tissue kallikrein KLK13, below 4.00; on thrombin it was below 4.00; at Factor XIIa, below 4.00; against Factor VIIa, below 4.00. Also, the results for the pIC50 at Factor Xa and at human plasma kallikrein were below 5.15 and 8.19, respectively.

For the compound `CSCC[C@H](N)C(=O)N[C@@H](CS)C(=O)N[C@@H](CC(N)=O)C(=O)N[C@@H](Cc1ccc(O)cc1)C(=O)N[C@@H](Cc1c[nH]c2ccccc12)C(=O)N[C@@H](CO)C(=O)N1CCC[C@H]1C(=O)N[C@@H](Cc1c[nH]c2ccccc12)C(=O)N[C@H](C(=O)N[C@@H](CCC(=O)O)C(=O)N[C@@H](CS)C(=O)N[C@@H](CO)C(=O)N[C@@H](C)C(N)=O)[C@@H](C)O` [Compound R2104, MCNYWSPWTECSA-NH2] (H-MCNYWSPWTECSA-NH2), the pIC50 is below 5.30 on Factor XIa; below 4.00 against tissue kallikrein KLK13; below 4.00 on thrombin; below 4.00 against Factor XIIa; below 4.00 against Factor VIIa; below 4.00 on Factor Xa. At human plasma kallikrein, the pIC50 was 8.47.
